The target of this assay is serotonin transporter (SERT) (Rattus norvegicus, UniProt P31652).

We go through one compound from PMC7770045 (Biochemical pharmacology, 2020).

Each structure is given as a SMILES string.

Chain of serotonin transporter (SERT) (P31652 whole entry): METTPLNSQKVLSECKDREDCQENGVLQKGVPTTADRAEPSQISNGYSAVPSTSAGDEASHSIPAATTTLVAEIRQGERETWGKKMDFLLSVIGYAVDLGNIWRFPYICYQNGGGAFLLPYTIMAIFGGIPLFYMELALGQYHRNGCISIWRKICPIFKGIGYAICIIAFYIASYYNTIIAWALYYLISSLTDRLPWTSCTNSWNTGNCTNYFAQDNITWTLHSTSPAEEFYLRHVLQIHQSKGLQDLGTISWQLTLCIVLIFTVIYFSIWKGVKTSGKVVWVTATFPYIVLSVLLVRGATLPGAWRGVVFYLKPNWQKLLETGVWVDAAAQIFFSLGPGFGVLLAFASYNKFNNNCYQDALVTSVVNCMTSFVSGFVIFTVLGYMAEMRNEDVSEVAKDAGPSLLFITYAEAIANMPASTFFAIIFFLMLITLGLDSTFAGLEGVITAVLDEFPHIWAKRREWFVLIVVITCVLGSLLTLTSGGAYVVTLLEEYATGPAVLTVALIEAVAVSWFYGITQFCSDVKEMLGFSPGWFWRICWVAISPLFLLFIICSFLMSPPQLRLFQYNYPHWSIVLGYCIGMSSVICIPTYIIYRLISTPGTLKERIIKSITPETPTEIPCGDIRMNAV

As to `NCCc1c[nH]c2ccc(O)cc12` [Serotonin], the Michaelis constant (Km) (as a rule, the concentration of substrate that gives half-maximal velocity) stood at 2.21 µM.
